Test results reported in patent publication US8613905B2, “Diagnostic agent” (United Arab Emirates University, priority 2007, dated 2013).
“Also recorded” adds a separate entry of the source.

Key:
[1] = molecular target: T1, fresh or aggregated α-synuclein (Homo sapiens, UniProt P37840); test: ELISA: binding of biotinylated peptides to coated α-synuclein; settings: for binding to coated fresh and aggregated α-synuclein: α-synuclein coated 20-200 pmol/well, peptides 200 pmol/well, FIG. 2; for binding to aggregated versus fresh α-synuclein: range of peptide concentrations, FIG. 3A, B; for binding to aggregated versus fresh α-synuclein / lowest binding concentration detected: α-synuclein coated at 100 pmol/well; for binding to coated aggregated α-synuclein: aggregated α-synuclein coated at 500 pmol/well, data not shown
T1 construct: made in house; host or cells: Escherichia coli
Method: Various concentrations of fresh, or aggregated α-synuclein solutions (20-200 pmol/well) were coated on a microtiter plate to dry overnight at 37° C. Aggregated α-synuclein was therefore fixed to the microtiter plate. Aggregated α-synuclein was produced either by aging, dopamine treatment or nitration as indicated on the figures. After washing with PBS containing 0.05% Tween-20 (PBST) and blocking with blocking buffer (PBS containing 2.5% gelatin and 0.05% Tween-20), the biotinylated peptides (200 pmol/well in PBS) or BSA protein (negative control) were added and incubated for 1.5 hrs at room temperature (RT).
Binding of peptides to α-synuclein was quantified using enzyme-linked avidin. Briefly, the plates were washed three times with PBST before the addition of 100 μl/well of extravidin peroxidase diluted at 1:5,000 in blocking buffer. Plates were then washed three times with PBST before the addition of TMB peroxidase substrate. Plates were left for 15 minutes at RT for colour to develop. The reaction was stopped by addition 100 μl/well of 0.5M sulphuric acid and the plates were read at 450 nm in a spectrophotometer.
The effect of peptide concentration on binding to a fixed concentration of α-synuclein was tested by coating microtiter plates as above with 100 or 200 pmol/well of α-synuclein. […] The lowest binding concentration detected for both peptides was 10 pmol/well. […] The lowest binding concentration detected for all three peptides was 10 pmol/well. The binding properties of peptides 6 & 7 to coated fresh or aged α-synuclein were also tested. The binding for peptides 6&7 was detectable when aggregated α-synuclein was coated at 500 pmol/well (data not shown).
The lowest binding concentration detected for dopamine treated α-synuclein was 1 pmol/well. Dopamine treated and nitrated α-synuclein are physiological approximations of the soluble aggregates (or adducts) present during the early stages of synucleinopathic diseases.

[2] = molecular target: T2, α-synuclein aggregates in TET-off regulated SH-SY5Y cells expressing A53T (Homo sapiens, UniProt P37840, A53T); test: Binding to α-synuclein aggregates in cell model; assay type: cell-based; settings: 5 μM for 1, 2 & 4 hrs respectively (OR5, 6, 7); FIG. 13
T2 construct: expressed in transfected cells; host or cells: inducible TET-off regulated SH-SY5Y cells (from Dr. Kostas Vekrellis)
Method: This example utilises the inducible TET-off regulated SH-SY5Y system from Dr. Kostas Vekrellis (Foundation For Biomedical Research Academy of Athens). These transfected cells have shown to produce both soluble and insoluble aggregates of α-synuclein. The binding of the OR compounds to α-synuclein aggregates was investigated in this cell model.
Cells expressing A53T were grown on coverslips in media without doxycycline and were differentiated for 7 days by adding retinoic acid at 10 μM. On day 6, cells were treated with 1 μM MG132 in media containing retinoic acid for 24 hrs. The biotinylated-OR5, 6 and 7 were added to the media at 5 μM for 1, 2 & 4 hrs respectively at 37° C.
The media for the cells was then changed with fresh media without peptides and then incubated for another 15 mins for the cells to clear up the unbound peptides to α-synuclein aggregates. The cells were fixed and then treated with 0.2% Triton X in PBS for 15 minutes at RT, and after washing with PBS the blocking buffer, 0.5% BSA, was added.
The cells were stained with anti-α-synuclein antibodies (MAb 211 or FL-140 (Santa Cruz Biotechnology)), and with Streptavidin-FITC (Sigma). α-synuclein aggregates were detected after staining with anti-mouse TRITC (Sigma) or anti-rabbit TRITC (Jackson ImmunoResearch Inc.) as appropriate.

aggregated α-synuclein = molecular target: T3, aggregated α-synuclein (Homo sapiens, UniProt P37840); test: Immunogold assay (EM) on preformed α-synuclein aggregates; assay type: binding; settings: 50 μM aggregated α-synuclein on grids; FIG. 6
T3 construct: made in house; host or cells: Escherichia coli
Method: Copper grids were placed on 50 μl of 50 μM aggregated α-synuclein for 1 hour and then washed on 50 μl of PBS for 2 minutes before being placed on 50 μl blocking buffer (Vector) for 1 hour 30 minutes. Grids were washed 5 times with PBS (5 minutes each) and then soaked in either […] peptide 5 (in blocking buffer) or blocking buffer only (negative control) for 1 hour 30 minutes at room temperature. Grids were then washed 5 times with PBS (5 minutes each) and soaked in 50 μl of streptavidin-gold label (1:50) in blocking buffer for 30 minutes at room temperature. Grids were again washed 5 times with PBS (5 minutes each) and soaked in 50 μl of uranyl acetate (2% in distilled water) for 1 minute at room temperature before viewing under a transmission electron microscope.

[3] = tested on: SH-SY5Y neuroblastoma cells; test: Uptake of peptides into living neuronal cells (confocal microscopy); assay type: cell-based, human; settings: peptides at 50 μM
Method: SH-SY5Y or M17 neuroblastoma cells were grown in 15 ml medium in confluent flasks before splitting each suspension into petri dishes and allowing cells to grow on coverslips (˜5×10^3/plate) until the next day. Cells were then incubated with different peptides at 50 μM in growing media (total volume=2 ml). […] After 15 min incubation with respective peptides, the cells were washed 3 times with PBS. 2 ml of fixing solution (4% paraformaldehyde in PBS) was added to the cells which were then incubated for 30 min at room temperature. Fixing buffer was removed and 2 ml of permeabilization buffer (0.2% Triton-X-100 in PBS) was added to the cells for 30 min at room temperature and then removed. 2 ml of Blocking buffer was added, left for 1 hour at RT and then removed before addition of 1:100 FITC [Avidin labelled Fluorescein] (Vector Labs) in blocking buffer. Cells were incubated for 1 hour and then washed twice with PBS 0.05% tween. The coverslips were removed and plated with the cell bearing surface downwards on a glass slide, with the addition of a drop of mounting medium (Dako Cytomation). Cells were then visualized under the confocal microscope.

[4] = molecular target: T1, fresh or aggregated α-synuclein; test: ELISA: coated peptides capturing free α-synuclein; assay type: binding; settings: peptides coated 100 pmol/well; α-synuclein 0.001-200 pmol/well; FIG. 4
Method: Peptides (100 pmol/well) were coated on a microtiter plate to dry overnight at 37° C. The peptides were therefore fixed to the microtiter plate. After washing with PBS containing 0.05% Tween 20 (PBST) and blocking with blocking buffer (PBS containing 2.5% gelatin and 0.05% Tween 20), various concentrations (0.001-200 pmol/well) of fresh or aggregated α-synuclein solution (produced by aging), or BSA protein (negative control) were added and incubated for 1.5 hrs at RT.
Binding of α-synuclein to peptides was quantified using enzyme-linked antibody specific for α-synuclein. Briefly, the plates were washed three times with PBST before addition of the polyclonal rabbit α-synuclein antibody FL-140 at 1:1000 (in PBS). Plates were then washed three times with PBST before the addition of TMB peroxidase substrate. Plates were left for 15 min at RT for colour to develop. The reaction was stopped by addition 100 μl/well of 0.5M sulphuric acid and the plates were read at 450 nm in a spectrophotometer.

[5] = molecular target: T4, oligomeric α-synuclein (dopamine treated α-synuclein) (Homo sapiens, UniProt P37840); test: Dot blotting of biotinylated peptides on α-synuclein; assay type: binding; settings: FIG. 11
T4 construct: made in house; host or cells: Escherichia coli
Method: The binding of the peptides to the oligomeric α-synuclein was also tested using dot blotting. Monomeric α-synuclein (fresh α-synuclein solution) and oligomeric α-synuclein (dopamine treated α-synuclein) was spotted onto a nitrocellulose membrane. After the samples had been dried at room temperature for 2 hrs, the membranes were blocked, and then anti-α-synuclein MAb 211 or biotinylated-peptides were added to the membranes and incubated for 1.5 hr at room temperature. After gentle washing the membranes were treated with Extravidin-peroxidase or anti-mouse-peroxidase as appropriate. The binding of 211 and the peptides was detected using ECL reagents (Pierce). As shown in FIG. 11 the biotinylated-peptides bind specifically to the oligomeric but not monomeric forms of α-synuclein.

## Gd-DOTA-rrrrrrGtvvaGK(biotin)-r [OR3]
[1]
  binding to coated fresh and aggregated α-synuclein: more specific binding to the aggregated α-synuclein

## Gd-DOTA-rGtvvaGK(biotin)-rrrrrr [OR1]
[1]
  binding to aggregated versus fresh α-synuclein: more binding to the aggregated than to the fresh α-synuclein
  binding to coated fresh and aggregated α-synuclein: high binding to both fresh and aggregated coated α-synuclein
  lowest binding concentration detected: 10 pmol/well

## Gd-DOTA-r-Sar-vva-Sar-K(biotin)-pentadiamine [OR7]
[2]
  binding to α-synuclein aggregates formed inside cells: bind to α-synuclein aggregates formed inside cells
[1]
  binding to coated aggregated α-synuclein: detectable
Aggregated α-synuclein
  binding to preformed α-synuclein aggregates (streptavidin-gold, EM): bind to preformed α-synuclein aggregates; also recorded: binding
[3]
  incubation after which observed in living cells: 4 h

## Gd-DOTA-rrrrrrGvvaGK(biotin)-r [OR4]
[1]
  binding to coated fresh and aggregated α-synuclein: more specific binding to the aggregated α-synuclein
[4]
  capture of aggregated versus fresh α-synuclein by coated peptide: captured more of the aggregated than the fresh α-synuclein

## Gd-DOTA-r-Sar-vva-Sar-K(biotin)-rrrrrr [OR5]
[2]
  binding to α-synuclein aggregates formed inside cells: bind to α-synuclein aggregates formed inside cells
[5]
  binding to oligomeric versus monomeric α-synuclein (dot blot): binding of biotinylated-peptide OR5 to α-synuclein oligomers
[1]; FIG. 5
  binding to aggregated α-synuclein generated by aging, dopamine treatment or nitration: highly specific binding to all forms of aggregated α-synuclein
  specificity for dopamine treated α-synuclein: particularly high specificity
[1]; dopamine treated α-synuclein (soluble aggregates)
  lowest binding concentration detected for dopamine treated α-synuclein: 1 pmol/well
Aggregated α-synuclein
  binding to preformed α-synuclein aggregates (streptavidin-gold, EM): bind to preformed α-synuclein aggregates; also recorded: binding
[4]
  capture of aggregated versus fresh α-synuclein by coated peptide: captured more of the aggregated than the fresh α-synuclein

## Gd-DOTA-r-Sar-vva-Sar-K(biotin)-butadiamine [OR6]
[2]
  binding to α-synuclein aggregates formed inside cells: bind to α-synuclein aggregates formed inside cells
[1]
  binding to coated aggregated α-synuclein: detectable
[3]
  incubation after which observed in living cells: 2 h

## Gd-DOTA-rGvvaGK(biotin)-rrrrrr [OR2]
[1]
  binding to aggregated versus fresh α-synuclein: more binding to the aggregated than to the fresh α-synuclein
  binding to coated fresh and aggregated α-synuclein: high binding to both fresh and aggregated coated α-synuclein
  lowest binding concentration detected: 10 pmol/well
